Assay results taken from patent US20160318891A1, “TONABERSAT PRODRUGS” (PROXIMAGEN LIMITED, priority 2013, published 2016).
Converted amounts (≈) assume the structure as drawn. Like-named read-outs stand apart in the source and are kept apart here.

Legend:
[1] = target: T1, human ether a go-go related gene (hERG) K+ channel (Homo sapiens, UniProt Q12809); assay: hERG assay, IonWorks patch clamp electrophysiology; assay type: cell-based; settings: Chinese Hamster Lung cell line stably expressing hERG; maximum assay concentration 33 uM
T1 construct: a Chinese Hamster Lung cell line stably expressing the full length hERG channel; expressed in transfected cells; host or cells: Chinese Hamster Lung cell line
Description: (§1) Compounds of the invention were tested for inhibition of the human ether a go-go related gene (hERG) K^+ channel using IonWorks patch clamp electrophysiology. 8 Point concentration-response curves were generated on two occasions using 3-fold serial dilutions from the maximum assay concentration (33 uM). Electrophysiological recordings were made from a Chinese Hamster Lung cell line stably expressing the full length hERG channel. Single cell ion currents were measured in the perforated patch clamp configuration (100 ug/mL amphoterocin) at room temperature using an IonWorks Quattro instrument. The internal solution contained 140 mM KCl, 1 mM MgCl2, 1 mM EGTA and 20 mM HEPES and was buffered to pH 7.3. The external solution contained 138 mM NaCl, 2.7 mM KCl, 0.9 mM CaCl2, 0.5 mM MgCl2, 8 mM Na2HPO4 and 1.5 mM KH2PO4, and was buffered to pH 7.3. Cells were clamped at a holding potential of […] for 30 s and then stepped to +40 mV for is. This was followed by a hyperpolarising step of 1 s to […] to evoke the hERG tail current. This sequence was repeated 5 times at a frequency of 0.25 Hz. Currents were measured from the tail step at the 5th pulse, and referenced to the holding current. Compounds were incubated for 6-7 min prior to a second measurement of the hERG signal using an identical pulse train. […] A control compound (quinidine) was used.

[2] = Solubility in aqueous solution; assay type: physicochemical
Description: In an embodiment prodrugs of the present invention are suitable for oral administration. The skilled person understands that the pH of the gastrointestinal tract changes along its length. For example, the stomach has a pH of around pH 1.5 and the GI tract after the stomach has a pH of around 5 to 7.5. For more detail see, for example, Measurement of gastrointestinal pH profiles in normal ambulant human subjects, Gut. 1988 August; 29(8): 1035-1041. Improved solubility is expected to result in improved absorption, and therefore improved oral bioavailability. Thus improved solubility at any pH value between around pH 1.5 to 8 is expected to improve oral bioavailability. Compounds of the invention were assessed for solubility in aqueous solutions having a pH of from 2 to 10. In an embodiment prodrugs of the invention have a solubility of >0.5 mg/mL in an aqueous solution having a pH of from 2 to 8. In an embodiment prodrugs have a solubility of >5.0 mg/mL, or >10.0 mg/mL, >100.0 mg/mL, or >200.0 mg/mL. In an embodiment the prodrugs have the aforementioned aqueous solubility at a pH within the range of from 4 to 8, or from 6 to 8.
In an embodiment prodrugs of the invention are administered intravenously. High prodrug solubility is advantageous in order to reduce the volume of solution administered to the patient, and to reduce the risk of damage to the circulatory system. Solubility of >10 mg/mL is preferred. Yet more preferred is solubility of >30 mg/mL or >100.0 mg/mL. Yet more preferred is solubility of >200.0 mg/mL. The solubility is measured in an aqueous solution having a pH of from 2 to 10, which pH range is advantageous for intravenous prodrug delivery. See, for example, A guide on intravenous drug compatibilities based on their pH, Nasser S C et al./Pharmacie Globale (IJCP) 2010, 5 (01)). In an embodiment the prodrugs of the claimed invention have solubility of >10 mg/mL in an aqueous solution having a pH of from 2 to 10.

hERG K+ channel = target: T2, hERG K+ channel (Homo sapiens, UniProt Q12809); assay: hERG assay, IonWorks patch clamp electrophysiology; assay type: cell-based; settings: human, pH 7.3; 11 uM; Chinese Hamster Lung cell line stably expressing hERG
T2 construct: a Chinese Hamster Lung cell line stably expressing the full length hERG channel; expressed in transfected cells; host or cells: Chinese Hamster Lung cell line
Description: as §1

[3] = rat brain; cited from earlier work
high K+ evoked CSD [4] = settings: rats; cited from earlier work
[5] = human brain; cited from earlier work
[6] = cited from earlier work
[7] = over a range of pH values including pH of 7.4; cited from earlier work
high K+ evoked CSD [8] = settings: cats; cited from earlier work

T2 sequence (Q12809 whole entry): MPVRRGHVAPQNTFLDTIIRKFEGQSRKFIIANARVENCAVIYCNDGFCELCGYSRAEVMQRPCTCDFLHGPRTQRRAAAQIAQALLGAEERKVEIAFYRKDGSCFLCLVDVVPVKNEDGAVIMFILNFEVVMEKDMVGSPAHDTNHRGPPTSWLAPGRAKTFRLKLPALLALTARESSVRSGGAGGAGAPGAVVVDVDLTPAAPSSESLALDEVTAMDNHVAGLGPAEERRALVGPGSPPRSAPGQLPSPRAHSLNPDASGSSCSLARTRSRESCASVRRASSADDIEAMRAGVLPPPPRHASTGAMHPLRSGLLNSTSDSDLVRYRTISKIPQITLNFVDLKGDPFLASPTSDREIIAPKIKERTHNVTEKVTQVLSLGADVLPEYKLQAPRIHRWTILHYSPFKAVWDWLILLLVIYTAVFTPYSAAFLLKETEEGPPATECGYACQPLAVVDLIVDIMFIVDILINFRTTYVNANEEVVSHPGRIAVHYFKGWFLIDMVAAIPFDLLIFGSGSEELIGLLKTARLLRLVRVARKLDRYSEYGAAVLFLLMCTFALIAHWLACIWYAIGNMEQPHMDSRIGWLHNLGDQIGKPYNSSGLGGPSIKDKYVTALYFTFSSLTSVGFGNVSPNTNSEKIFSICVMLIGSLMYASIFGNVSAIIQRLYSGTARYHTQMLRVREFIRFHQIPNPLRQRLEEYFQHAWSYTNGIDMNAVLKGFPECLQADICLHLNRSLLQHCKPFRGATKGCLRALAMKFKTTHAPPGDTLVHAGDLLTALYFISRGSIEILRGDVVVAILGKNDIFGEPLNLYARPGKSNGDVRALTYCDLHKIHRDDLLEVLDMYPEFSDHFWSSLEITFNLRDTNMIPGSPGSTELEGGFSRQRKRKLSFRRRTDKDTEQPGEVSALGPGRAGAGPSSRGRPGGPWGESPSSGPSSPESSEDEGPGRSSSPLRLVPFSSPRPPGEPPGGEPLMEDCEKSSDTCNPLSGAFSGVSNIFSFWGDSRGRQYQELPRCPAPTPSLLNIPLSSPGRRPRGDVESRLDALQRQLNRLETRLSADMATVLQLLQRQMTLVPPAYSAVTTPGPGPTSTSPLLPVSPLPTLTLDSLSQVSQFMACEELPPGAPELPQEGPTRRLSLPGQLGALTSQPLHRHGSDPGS
T1 sequence (Q12809 whole entry): as above

With `CC(=O)c1ccc2c(c1)[C@H](NC(=O)c1ccc(F)c(Cl)c1)[C@H](OC(=O)[C@H](C)N)C(C)(C)O2.Cl` [Example 1, (3S,4S)-6-Acetyl-4-[(3-chloro-4-fluorobenzene)amido]-2,2-dimethyl-3,4-dihydro-2H-1-benzopyran-3-yl (2S)-2-aminopropanoate hydrochloride] as the compound, how does the IC50 [1] read?
The IC50 was 6 µM.

What about the solubility ([2]; aqueous buffer, pH 4.0) of the same compound?
The solubility was over 10000 µg/mL.

What does the source list for `CC(=O)c1ccc2c(c1)[C@H](NC(=O)c1ccc(F)c(Cl)c1)[C@H](OC(=O)[C@@H](N)C(C)C)C(C)(C)O2.Cl` [Example 2, (3S,4S)-6-Acetyl-4-[(3-chloro-4-fluorobenzene)amido]-2,2-dimethyl-3,4-dihydro-2H-1-benzopyran-3-yl (2S)-2-amino-3-methylbutanoate hydrochloride]?
inhibition at 11 µM (hERG K+ channel): 38%; solubility ([2]; pH 4.4, aqueous buffer): ~5000 µg/mL

Which results are given for `CC(=O)c1ccc2c(c1)[C@H](NC(=O)c1ccc(F)c(Cl)c1)[C@H](OC(=O)[C@H](N)C(C)C)C(C)(C)O2.Cl` [Example 3, (3S,4S)-6-Acetyl-4-[(3-chloro-4-fluorobenzene)amido]-2,2-dimethyl-3,4-dihydro-2H-1-benzopyran-3-yl (2R)-2-amino-3-methylbutanoate hydrochloride]?
IC50 [1]: 4.3 µM; solubility ([2]; pH 4.8, aqueous buffer): < 1000 µg/mL

For `CC(=O)c1ccc2c(c1)[C@H](NC(=O)c1ccc(F)c(Cl)c1)[C@H](OC(=O)[C@H](N)CC(C)C)C(C)(C)O2.Cl` [Example 4, (3S,4S)-6-Acetyl-4-[(3-chloro-4-fluorobenzene)amido]-2,2-dimethyl-3,4-dihydro-2H-1-benzopyran-3-yl (2R)-2-amino-4-methylpentanoate hydrochloride], which solubility ([2]; pH 4.2, aqueous buffer) is on record?
The solubility was over 10000 µg/mL.

For `CC(=O)c1ccc2c(c1)[C@H](NC(=O)c1ccc(F)c(Cl)c1)[C@H](OC(=O)[C@@H]1CCCN1)C(C)(C)O2.Cl` [Example 5, (3S,4S)-6-Acetyl-4-[(3-chloro-4-fluorobenzene)amido]-2,2-dimethyl-3,4-dihydro-2H-1-benzopyran-3-yl (2S)-pyrrolidine-2-carboxylate hydrochloride], which IC50 [1] is on record?
Its IC50 is 1.4 µM.

What about the solubility ([2]; pH 4.4, aqueous buffer) of the same compound?
Its solubility is over 10000 µg/mL.

For `CC(=O)c1ccc2c(c1)[C@H](NC(=O)c1ccc(F)c(Cl)c1)[C@H](OC(=O)C(C)(C)N)C(C)(C)O2.Cl` [Example 6, (3S,4S)-6-Acetyl-4-[(3-chloro-4-fluorobenzene)amido]-2,2-dimethyl-3,4-dihydro-2H-1-benzopyran-3-yl 2-amino-2-methylpropanoate hydrochloride], which solubility ([2]; pH 4.7, aqueous buffer) is on record?
The solubility was over 10000 µg/mL.

For `CN[C@@H](C)C(=O)O[C@H]1[C@@H](NC(=O)c2ccc(F)c(Cl)c2)c2cc(C(C)=O)ccc2OC1(C)C.Cl` [Example 8, (3S,4S)-6-Acetyl-4-[(3-chloro-4-fluorobenzene)amido]-2,2-dimethyl-3,4-dihydro-2H-1-benzopyran-3-yl (2S)-2-(methylamino)propanoate hydrochloride], which solubility ([2]; pH 5.1, aqueous buffer) is on record?
The solubility was over 10000 µg/mL.

Which inhibition at 11 µM (hERG K+ channel) does the source give for `CC(=O)c1ccc2c(c1)[C@H](NC(=O)c1ccc(F)c(Cl)c1)[C@H](OC(=O)[C@@H](N)CCCCN)C(C)(C)O2.Cl.Cl` [Example 9, (3S,4S)-6-Acetyl-4-[(3-chloro-4-fluorobenzene)amido]-2,2-dimethyl-3,4-dihydro-2H-1-benzopyran-3-yl (2S)-2,6-diaminohexanoate dihydrochloride] here?
The inhibition at 11 µM was 0%.

What about the solubility ([2]; pH 4.4, aqueous buffer) of the same compound?
The solubility was over 10000 µg/mL.

With `CC(=O)c1ccc2c(c1)[C@H](NC(=O)c1ccc(F)c(Cl)c1)[C@H](OC(=O)[C@@H](N)CC(N)=O)C(C)(C)O2.Cl` [Example 10, (3S,4S)-6-Acetyl-4-[(3-chloro-4-fluorobenzene)amido]-2,2-dimethyl-3,4-dihydro-2H-1-benzopyran-3-yl (2S)-2-amino-3-carbamoylpropanoate hydrochloride] as the compound, how does the inhibition at 11 µM (hERG K+ channel) read?
Its inhibition at 11 µM is 18%.

What about the solubility ([2]; pH 4.4, aqueous buffer) of the same compound?
The solubility was under 1000 µg/mL.

For `CC(=O)c1ccc2c(c1)[C@H](NC(=O)c1ccc(F)c(Cl)c1)[C@H](OC(=O)[C@@H](N)CCC(N)=O)C(C)(C)O2.Cl` [Example 11, (3S,4S)-6-Acetyl-4-[(3-chloro-4-fluorobenzene)amido]-2,2-dimethyl-3,4-dihydro-2H-1-benzopyran-3-yl (2S)-2-amino-4-carbamoylbutanoate hydrochloride], which solubility ([2]; pH 4.6, aqueous buffer) is on record?
Its solubility is over 2000 µg/mL.

Which results are given for `CC(=O)c1ccc2c(c1)[C@H](NC(=O)c1ccc(F)c(Cl)c1)[C@H](OC(=O)[C@@H](N)CCCNC(=N)N)C(C)(C)O2.Cl.Cl` [Example 12, (3S,4S)-6-Acetyl-4-[(3-chloro-4-fluorobenzene)amido]-2,2-dimethyl-3,4-dihydro-2H-1-benzopyran-3-yl (2S)-2-amino-5-carbamimidamidopentanoate dihydrochloride]?
inhibition at 11 µM (hERG K+ channel): 9%; solubility ([2]; pH 4.4, aqueous buffer): > 10000 µg/mL

Which results are given for `CC(=O)c1ccc2c(c1)[C@H](NC(=O)c1ccc(F)c(Cl)c1)[C@H](OC(=O)[C@@H](N)CC(=O)O)C(C)(C)O2` [Example 13, (3S)-4-{[(3S,4S)-6-Acetyl-4-[(3-chloro-4-fluorobenzene)amido]-2,2-dimethyl-3,4-dihydro-2H-1-benzopyran-3-yl]oxy}-3-amino-4-oxobutanoic acid; trifluoroacetic acid]?
inhibition at 11 µM (hERG K+ channel): 19%; solubility ([2]; pH 6.5, aqueous buffer): > 2000 µg/mL

Which inhibition at 11 µM (hERG K+ channel) does the source give for `CC(=O)c1ccc2c(c1)[C@H](NC(=O)c1ccc(F)c(Cl)c1)[C@H](OC(=O)[C@@H](N)CCC(=O)O)C(C)(C)O2` [Example 14, (4S)-5-{[(3S,4S)-6-Acetyl-4-[(3-chloro-4-fluorobenzene)amido]-2,2-dimethyl-3,4-dihydro-2H-1-benzopyran-3-yl]oxy}-4-amino-5-oxopentanoic acid; trifluoroacetic acid] here?
Its inhibition at 11 µM is 8%.

What about the solubility ([2]; pH 4.6, aqueous buffer) of the same compound?
Its solubility is over 2000 µg/mL.

Which solubility ([2]; aqueous buffer, pH 3.0) does the source give for `CC(=O)c1ccc2c(c1)[C@H](NC(=O)c1ccc(F)c(Cl)c1)[C@H](OCOC[C@@H](O)CO)C(C)(C)O2` [Example 16, N-[(3S,4S)-6-Acetyl-3-{[(2S)-2,3-dihydroxypropoxy]methoxy}-2,2-dimethyl-3,4-dihydro-2H-1-benzopyran-4-yl]-3-chloro-4-fluorobenzamide] here?
The solubility was under 1000 µg/mL.

Which “binding to unique stereo-selective site” value [3] does the source give for `CC(=O)c1ccc2c(c1)[C@H](NC(=O)c1ccc(F)c(Cl)c1)[C@H](O)C(C)(C)O2` [Tonabersat] here?
The value was “binds selectively and with high affinity”.

What about the “inhibition of high K+ evoked CSD” value (high K+ evoked CSD [4]) of the same compound?
Its value is “inhibits high K+ evoked CSD”.

What about the “binding to unique stereo-selective site” value [5] of the same compound?
The value was “binds selectively and with high affinity”.

What about the “log P” value [6] of the same compound?
The value was 3.32.

What about the aqueous solubility [7] of the same compound?
The aqueous solubility was 25 µg/mL (≈ 63.8 µM).

What about the “inhibition of high K+ evoked CSD” value (high K+ evoked CSD [8]) of the same compound?
The value was “inhibits high K+ evoked CSD”.
